From patent publication US20120245137A1 (Zalicus Pharmaceuticals Ltd., priority 2009, published 2012)

Columns and labels:
[1] = target: N-type calcium channel subunits (α1B, α2δ, and β3a) (Homo sapiens, UniProt Q00975); assay: Block of Cav2.2 channel, whole cell voltage clamp, manual and PatchXpress; type: cell-based; settings: Table 5; table follows Assay Example 3 (whole cell voltage clamp / PatchXpress); assay not given
In short: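 Percent block taken as current amplitude ratio with versus without compound, applied in rising doses; IC50 fitted where one cell received multiple doses. Protocol: 50 ms pulses to +20 mV at 0.067 Hz from […] or −90 mV holding; P/n leak subtraction, no junction-potential correction; manual and PatchXpress recordings.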

[2] = target: human α1G T-type channels (Homo sapiens, UniProt O43497); assay: T-type calcium channel block, whole cell patch clamp, α1G; type: cell-based; settings: HEK cells stably expressing human α1G; mainly non-inactivated protocol; values above 10,000 nM represented as 10000
Experimental: T-type calcium channel blocking activity was assayed in human embryonic kidneycells, HEK 293 (Invitrogen), stably transfected with the T-type calcium channel subunits. Briefly, cells were cultured in Dulbecco's modified eagle medium (DMEM) supplemented with 10% fetal bovine serum, 200 U/ml penicillin, and 0.2 mg/mL streptomycin at 37° C. with 5% CO2. At 85% confluency, cells were split with 0.25% trypsin/1 mM EDTA and plated at 10% confluency on glass coverslips. At 12 hours, the medium was replaced, and the cells stably transfected using a standard calcium phosphate protocol and the appropriate calcium channel cDNA's. Fresh DMEM was supplied, and the cells transferred to 28° C./5% CO2.
Standard patch-clamp techniques were employed to identify blockers of T-type currents. Briefly, previously described HEK cell lines stably expressing human α1G, α1H, and α1I T-type channels were used for all the recordings (passage #: 4-20, 37° C., 5% CO2). Whole cell patch clamp experiments were performed using an Axopatch 200B amplifier (Axon Instruments, Burlingame, Calif.) linked to a personal computer equipped with pCLAMP software. Data were analyzed using Clampfit (Axon Instruments) and SigmaPlot 4.0 (Jandel Scientific). To obtain T-type currents, plastic dishes containing semi-confluent cells were positioned on the stage of a ZEISS AXIOVERT S100 microscope after replacing the culture medium with external solution (Table 2). Whole-cell patches were obtained using pipettes (borosilicate glass with filament, O.D.: 1.5 mm, I.D.: 0.86 mm, 10 cm length), fabricated on a SUTTER P-97 puller with resistance values of ˜5 MΩ (Table 3).
T-type currents were reliably obtained by using two voltage protocols: • “non-inactivating,” and • “inactivation.”
Test compounds were dissolved in external solution, 0.1-0.01% DMSO. After ˜10 minutes rest, they were applied by gravity close to the cell using a WPI microfil tubing. The “non-inactivated” pre-pulse was used to examine the resting block of a compound. The “inactivated” protocol was employed to study voltage-dependent block.

Sequence of N-type calcium channel subunits (α1B, α2δ, and β3a) (Q00975 whole entry): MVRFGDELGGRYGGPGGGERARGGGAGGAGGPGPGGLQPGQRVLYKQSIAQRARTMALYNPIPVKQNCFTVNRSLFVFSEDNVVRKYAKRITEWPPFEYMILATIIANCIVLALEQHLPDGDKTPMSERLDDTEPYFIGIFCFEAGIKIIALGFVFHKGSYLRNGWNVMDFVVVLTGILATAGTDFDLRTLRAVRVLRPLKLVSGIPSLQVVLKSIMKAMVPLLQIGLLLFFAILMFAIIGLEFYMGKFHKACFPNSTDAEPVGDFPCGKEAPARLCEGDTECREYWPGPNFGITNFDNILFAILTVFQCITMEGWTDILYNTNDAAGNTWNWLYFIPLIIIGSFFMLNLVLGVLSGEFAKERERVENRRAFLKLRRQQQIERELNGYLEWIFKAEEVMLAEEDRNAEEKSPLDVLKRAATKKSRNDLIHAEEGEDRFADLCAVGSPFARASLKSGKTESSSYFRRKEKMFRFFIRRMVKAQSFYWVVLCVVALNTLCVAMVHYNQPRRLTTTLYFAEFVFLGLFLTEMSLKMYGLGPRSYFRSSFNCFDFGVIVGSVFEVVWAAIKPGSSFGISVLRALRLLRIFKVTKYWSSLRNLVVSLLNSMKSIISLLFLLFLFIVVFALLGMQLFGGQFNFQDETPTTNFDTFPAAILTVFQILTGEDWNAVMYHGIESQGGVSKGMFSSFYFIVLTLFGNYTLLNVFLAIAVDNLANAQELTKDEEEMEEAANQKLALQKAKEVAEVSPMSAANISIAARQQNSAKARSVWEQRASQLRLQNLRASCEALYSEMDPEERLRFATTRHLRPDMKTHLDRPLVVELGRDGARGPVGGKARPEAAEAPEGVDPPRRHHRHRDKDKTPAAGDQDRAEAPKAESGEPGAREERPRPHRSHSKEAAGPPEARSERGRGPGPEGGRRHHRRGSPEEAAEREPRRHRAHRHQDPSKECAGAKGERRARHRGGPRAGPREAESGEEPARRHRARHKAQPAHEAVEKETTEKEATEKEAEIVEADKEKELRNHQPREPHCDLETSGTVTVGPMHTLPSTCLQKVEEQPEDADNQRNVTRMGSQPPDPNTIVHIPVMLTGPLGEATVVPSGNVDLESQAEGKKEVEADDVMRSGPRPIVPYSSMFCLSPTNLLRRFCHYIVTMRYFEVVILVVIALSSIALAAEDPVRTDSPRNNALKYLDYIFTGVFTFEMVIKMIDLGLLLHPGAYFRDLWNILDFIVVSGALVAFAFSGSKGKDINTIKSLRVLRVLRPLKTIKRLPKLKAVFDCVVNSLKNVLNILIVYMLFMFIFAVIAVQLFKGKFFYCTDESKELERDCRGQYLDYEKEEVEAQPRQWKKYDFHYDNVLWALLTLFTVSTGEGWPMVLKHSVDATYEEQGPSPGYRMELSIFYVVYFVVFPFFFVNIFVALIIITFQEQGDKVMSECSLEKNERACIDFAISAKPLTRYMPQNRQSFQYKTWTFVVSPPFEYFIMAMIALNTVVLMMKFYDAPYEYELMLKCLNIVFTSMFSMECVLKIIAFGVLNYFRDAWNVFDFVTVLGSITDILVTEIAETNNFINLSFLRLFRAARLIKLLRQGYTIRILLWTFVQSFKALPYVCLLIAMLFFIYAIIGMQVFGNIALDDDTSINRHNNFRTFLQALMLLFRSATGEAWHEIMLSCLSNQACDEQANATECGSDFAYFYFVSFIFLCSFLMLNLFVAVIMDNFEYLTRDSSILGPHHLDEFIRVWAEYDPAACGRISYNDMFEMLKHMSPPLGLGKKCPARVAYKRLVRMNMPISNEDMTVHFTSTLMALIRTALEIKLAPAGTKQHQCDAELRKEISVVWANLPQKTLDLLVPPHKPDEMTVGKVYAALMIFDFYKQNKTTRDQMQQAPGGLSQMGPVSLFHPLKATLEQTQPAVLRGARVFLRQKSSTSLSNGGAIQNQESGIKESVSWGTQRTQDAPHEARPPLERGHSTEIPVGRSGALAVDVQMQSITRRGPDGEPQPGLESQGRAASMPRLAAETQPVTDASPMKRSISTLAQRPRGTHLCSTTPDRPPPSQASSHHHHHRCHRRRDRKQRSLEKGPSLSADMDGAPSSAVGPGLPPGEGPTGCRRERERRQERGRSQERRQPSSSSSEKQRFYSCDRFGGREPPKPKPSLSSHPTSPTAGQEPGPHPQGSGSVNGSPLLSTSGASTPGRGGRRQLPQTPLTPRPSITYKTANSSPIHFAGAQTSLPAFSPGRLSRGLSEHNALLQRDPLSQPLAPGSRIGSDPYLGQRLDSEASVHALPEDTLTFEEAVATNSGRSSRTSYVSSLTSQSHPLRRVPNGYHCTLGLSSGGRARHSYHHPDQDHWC
Sequence of N-type calcium channel subunits (α1B, α2δ, and β3a) (P54289 25-1103 partner): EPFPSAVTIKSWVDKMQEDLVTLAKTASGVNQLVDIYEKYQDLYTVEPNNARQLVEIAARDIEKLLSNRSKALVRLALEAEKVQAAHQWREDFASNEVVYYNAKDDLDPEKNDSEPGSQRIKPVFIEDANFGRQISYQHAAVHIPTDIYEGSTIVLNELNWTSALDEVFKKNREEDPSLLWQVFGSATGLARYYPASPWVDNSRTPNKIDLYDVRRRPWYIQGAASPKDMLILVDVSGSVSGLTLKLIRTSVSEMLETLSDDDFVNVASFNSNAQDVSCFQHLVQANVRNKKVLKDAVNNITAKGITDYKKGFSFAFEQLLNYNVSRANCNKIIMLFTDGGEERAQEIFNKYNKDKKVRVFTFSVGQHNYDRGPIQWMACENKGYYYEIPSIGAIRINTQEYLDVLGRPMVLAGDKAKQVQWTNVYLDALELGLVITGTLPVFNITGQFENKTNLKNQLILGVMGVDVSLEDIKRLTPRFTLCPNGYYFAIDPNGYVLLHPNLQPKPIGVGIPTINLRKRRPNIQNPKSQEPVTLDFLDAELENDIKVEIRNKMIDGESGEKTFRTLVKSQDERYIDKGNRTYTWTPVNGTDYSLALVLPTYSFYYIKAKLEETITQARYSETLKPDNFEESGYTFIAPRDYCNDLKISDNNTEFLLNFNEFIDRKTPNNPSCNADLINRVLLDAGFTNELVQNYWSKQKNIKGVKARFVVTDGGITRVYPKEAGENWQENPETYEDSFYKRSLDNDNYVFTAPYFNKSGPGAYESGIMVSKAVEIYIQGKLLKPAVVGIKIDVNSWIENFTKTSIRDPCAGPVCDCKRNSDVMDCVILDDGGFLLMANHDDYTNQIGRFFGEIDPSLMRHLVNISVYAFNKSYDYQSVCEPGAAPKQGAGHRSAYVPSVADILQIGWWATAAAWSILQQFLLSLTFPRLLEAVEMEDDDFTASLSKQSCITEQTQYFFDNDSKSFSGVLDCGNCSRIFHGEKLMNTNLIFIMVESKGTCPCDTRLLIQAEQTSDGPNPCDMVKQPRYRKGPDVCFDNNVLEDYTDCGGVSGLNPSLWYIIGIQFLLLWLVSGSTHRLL
Sequence of N-type calcium channel subunits (α1B, α2δ, and β3a) (P54284 whole entry partner): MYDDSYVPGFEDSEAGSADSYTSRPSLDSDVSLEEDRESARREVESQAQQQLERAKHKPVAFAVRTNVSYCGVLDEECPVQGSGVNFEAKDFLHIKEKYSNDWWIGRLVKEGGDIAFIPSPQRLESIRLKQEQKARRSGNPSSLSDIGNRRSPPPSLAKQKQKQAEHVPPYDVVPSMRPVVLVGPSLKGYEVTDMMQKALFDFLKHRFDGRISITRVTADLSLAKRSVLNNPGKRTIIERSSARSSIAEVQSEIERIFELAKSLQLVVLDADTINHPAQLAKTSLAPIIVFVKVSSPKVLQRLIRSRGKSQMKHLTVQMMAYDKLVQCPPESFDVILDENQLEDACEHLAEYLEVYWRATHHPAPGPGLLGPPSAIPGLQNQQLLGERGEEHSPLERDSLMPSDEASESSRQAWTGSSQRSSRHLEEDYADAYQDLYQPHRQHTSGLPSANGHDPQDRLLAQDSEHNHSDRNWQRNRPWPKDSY

| Molecule | IC50 [1] | IC50 [2] |
| --- | --- | --- |
| 4-(trifluoromethyl)-N-((1R,4R)-4- ((3- (trifluoromethyl)phenylsulfonyl) methyl)cyclohexyl)picolinamide [Compound 103] | 460 nM | > 10000 nM |
| Cn1nc(C(F)(F)F)cc1C(=O)NCC1(C)CCC(F)(S(=O)(=O)c2cccc(C(F)(F)F)c2)CC1 (stereo not drawn) [Compound 151, N-((4-fluoro-1-methyl-4-(3-(trifluoromethyl)phenylsulfonyl)cyclohexyl)methyl)-l-methyl-3-(trifluoromethyl)-1H-pyrazole-5-carboxamide] | 580 nM | 2900 nM |
| CC1(CNC(=O)c2ccc(C(F)(F)F)cn2)CCC(F)(S(=O)(=O)c2cccc(C(F)(F)F)c2)CC1 (stereo not shown) [Compound 152, N-((4-fluoro-1-methyl-4-(3-(trifluoromethyl)phenylsulfonyl)cyclohexyl)methyl)-5-(trifluoromethyl)picolinamide] | 550 nM | 3600 nM |
| O=C(Nc1ccc(Oc2ccc(F)cc2)cc1)[C@H]1C[C@H](S(=O)(=O)c2cccc(C(F)(F)F)c2)C1 [Compound 406, (1R,3R)-N-(4-(4-fluorophenoxy)phenyl)-3-(3-(trifluoromethyl)phenylsulfonyl)cyclobutane carboxamide] | 1540 nM | – |
| O=C(Nc1ncccc1C(F)(F)F)[C@H]1C[C@@H](S(=O)(=O)c2cccc(C(F)(F)F)c2)C1 [Compound 414, (1S,3S)-3-(3-(trifluoromethyl)phenylsulfonyl)-N-(3-(trifluoromethyl)pyridin-2-yl)cyclobutanecarboxamide] | 1360 nM | – |
| Cc1nn(C)c(C)c1S(=O)(=O)NC[C@H]1C[C@H](S(=O)(=O)c2cccc(C(F)(F)F)c2)C1 [Compound 421, 1,3,5-trimethyl-N-(((1R,3R)-3-(3-(trifluoromethyl)phenylsulfonyl)cyclobutyl)methyl)-1H-pyrazole-4-sulfonamide] | 5580 nM | – |
| O=C(N[C@H]1C[C@@H](S(=O)(=O)c2cccc(C(F)(F)F)c2)C1)c1ccc(C(F)(F)F)nc1 [Compound 430, 6-(trifluoromethyl)-N-((1S,3S)-3-(3-(triffuoromethyl)phenylsulfonyl)cyclobutyl) nicotinamide] | > 10000 nM | – |
| CC([C@H]1C[C@H](NC(=O)c2ncc(C(F)(F)F)cc2S(C)(=O)=O)C1)S(=O)(=O)c1cccc(C(F)(F)F)c1 (stereo partly drawn) [Compound 435, 3-(methylsulfonyl)-5-(trifluoromethyl)-N-((1R,3R)-3-((R)-1-(3-(trifluoromethyl)phenylsulfonyl)ethyl)cyclobutyl) picolinamide] | 1470 nM | – |
| CC(C)([C@H]1C[C@H](NC(=O)c2ncc(C(F)(F)F)cc2S(C)(=O)=O)C1)S(=O)(=O)c1cccc(C(F)(F)F)c1 [Compound 436, 3-(methylsulfonyl)-5-(trifluoromethyl)-N-((1R,3R)-3-(2-(3-(trifluoromethyl)phenylsulfonyl)propan-2-yl)cyclobutyl)picolinamide] | 630 nM | – |
| CC(C)([C@H]1C[C@H](NC(=O)c2cnc(C(F)(F)F)nc2)C1)S(=O)(=O)c1cccc(C(F)(F)F)c1 [Compound 437, 2-(trifluoromethyl)-N-((1R,3R)-3-(2-(3-(trifluoromethyl)phenylsulfonyl)propan-2-yl)cyclobutyl)pyrimidine-5-carboxamide] | 720 nM | – |
| CC(C)([C@H]1C[C@H](NC(=O)c2ccc(C(F)(F)F)cc2S(C)(=O)=O)C1)S(=O)(=O)c1cccc(C(F)(F)F)c1 [Compound 439, 2-(methylsulfonyl)-4-(trifluoromethyl)-N-((1R,3R)-3-(2-(3-(tritluoromethyl)phenylsulfonyl)propan-2-yl)cyclobutyl)benzamide] | 400 nM | – |
| CC(C)([C@H]1C[C@H](NC(=O)c2ccc(F)c(C(F)(F)F)c2)C1)S(=O)(=O)c1cccc(C(F)(F)F)c1 [Compound 440, 4-fluoro-3-(trifluoromethyl)-N-((1R,3R)-3-(2-(3-(trifluoromethyl)phenylsulfonyl)propan-2-yl)cyclobutyl)benzamide] | 80 nM | – |
| CC(C)([C@H]1C[C@H](NC(=O)c2ccc(F)c(Cl)c2)C1)S(=O)(=O)c1cccc(C(F)(F)F)c1 [Compound 441, 3-chloro-4-fluoro-N-((1R,3R)-3-(2-(3-(trifluoromethyl)phenylsulfonyl)propan-2-yl)cyclobutyl)benzamide] | 80 nM | – |
| O=S(=O)(c1cccc(C(F)(F)F)c1)[C@H]1C[C@H](c2c[nH]c(-c3ccc(C(F)(F)F)cc3)n2)C1 [Compound 443, 2-(4-(trifluoromethyl)phenyl)-4-((1R,3R)-3-(3-(trifluoromethyl)phenylsulfonyI)cyclobutyl)-1H-imidazole] | 440 nM | – |
| O=S(=O)(c1cccc(C(F)(F)F)c1)[C@H]1C[C@H](c2c[nH]c(-c3ccc(OC(F)(F)F)cc3)n2)C1 [Compound 444, 2-(4-(trifluoromethoxy)phenyl)-4-((1R,3R)-3-(3-(trifluoromethyl)phenylsulfonyl)cyclobutyl)-1H-imidazole] | 290 nM | – |
| O=S(=O)(c1cccc(C(F)(F)F)c1)[C@H]1C[C@H](c2c[nH]c(-c3ccc(C(F)(F)F)nc3)n2)C1 [Compound 445, 2-(trifluoromethyl)-5-(4-((1R,3R)-3-(3-(trifluoromethyl)phenylsulfonyl)cyclobutyl)-1H-imidazol-2-yl)pyridine] | 200 nM | – |
| O=S(=O)(c1cccc(C(F)(F)F)c1)[C@H]1C[C@@H](c2c[nH]c(-c3ccc(C(F)(F)F)nc3)n2)C1 [Compound 446, 2-(trifluoromethyl)-5-(4-((1S,3S)-3-(3-(trifluoromethyl)phenylsulfonyl)cyclobutyl)-1H-imidazoI-2-yl)pyridine] | 810 nM | – |
| CC(C)(C)c1nc([C@H]2C[C@@H](S(=O)(=O)c3cccc(C(F)(F)F)c3)C2)c[nH]1 [Compound 447, 2-tert-butyl-4-((1S,3S)-3-(3-(trifluoromethyl)phenylsulfonyl)cyclobutyl)-1H-imidazole] | 1830 nM | – |
| CC(C)(C)c1nc([C@H]2C[C@H](S(=O)(=O)c3cccc(C(F)(F)F)c3)C2)c[nH]1 [Compound 448, 2-tert-butyl-4-((1R,3R)-3-(3-(trifluoromethyl)phenylsulfonyl)cyclobutyl)-1H-imidazole] | 2110 nM | – |
| Cc1cccc(C(=O)NCC(C)(C)S(=O)(=O)c2cccc(C(F)(F)F)c2)n1 [Compound 485, 6-methyl-N-(2-methyl-2-(3-(trifluoromethyl)phenylsulfonyl)propyl) picolinamide] | – | 710 nM |
| CC(C)(CNS(=O)(=O)c1cccc2nonc12)S(=O)(=O)c1cccc(C(F)(F)F)c1 [Compound 493] | – | 680 nM |
| CC(C)(CNS(=O)(=O)c1ccc(S(C)(=O)=O)cc1)S(=O)(=O)c1cccc(C(F)(F)F)c1 [Compound 497, N-(2-methyl-2-(3-(trifluoromethyl)phenylsulfonyl)propyl)-4-(methylsulfonyl) benzenesulfonamide] | – | 520 nM |
| CN(CCC(C)(C)S(=O)(=O)c1cccc(C(F)(F)F)c1)C(=O)c1ccc(C(F)(F)F)cc1S(C)(=O)=O [Compound 508, N-methyl-N-(3-methyl-3-(3-(trifluoromethyl)phenylsulfonyl)butyl)-2-(methylsulfonyl)-4-(trifluoromethyl)benzamide] | – | 850 nM |
| CN(CCC(C)(C)S(=O)(=O)c1cccc(C(F)(F)F)c1)C(=O)c1cc(C(F)(F)F)nn1C [Compound 509, N,1-dimethyl-N-(3-methyl-3-(3-(trifluoromethyl)phenylsulfonyl)butyl)-3-(trifluoromethyl)-1H-pyrazole-5-carboxamide] | – | 650 nM |
| CN(CCC(C)(C)S(=O)(=O)c1cccc(C(F)(F)F)c1)C(=O)c1ccc(C(F)(F)F)nc1 [Compound 511, N-methyl-N-(3-methyl-3-(3-(trifluoromethyl)phenylsulfonyl)butyl)-6-(trifluoromethyl)nicotinamide] | – | 960 nM |
| CN(CCC(C)(C)S(=O)(=O)c1cccc(C(F)(F)F)c1)C(=O)c1ccc(C(F)(F)F)cn1 [Compound 515, N-methyl-N-(3-methyl-3-(3-(trifluoromethyl)phenylsulfonyl)bulyl)-5-(trifluoromethyl)picolinamide] | – | 610 nM |
| CC(C)(CCNC(=O)c1cc(S(C)(=O)=O)ccc1Cl)S(=O)(=O)c1cccc(C(F)(F)F)c1 [Compound 530, 2-chloro-N-(3-methyl-3-(3-(trifluoromethyl)phenylsulfonyl)butyl)-5-(methylsulfonyl)benzamide] | – | 940 nM |
| CC(C)(CCNC(=O)c1ccnc(C(F)(F)F)n1)S(=O)(=O)c1cc(F)cc(C(F)(F)F)c1 [Compound 534, N-(3-(3-fluoro-5-(trifluoromethyl)phenylsulfonyl)-3-methylbutyl)-2-(trifluoromethyl)pyrimidine-4-carboxamide] | – | 830 nM |
